Experimental findings from patent US6984645B2, “Dual inhibitors of adipocyte fatty acid binding protein and keratinocyte fatty acid binding protein” (Bristol-Myers Squibb Company, priority 2001, dated 2006) are described below.

In general, melting point refers to the temperature of the solid-liquid transition. In turn, `O=C(O)C(O)c1cccc(OCc2ccccc2Cl)c1OCc1ccncc1` (stereo not drawn) [Example 344, 3-[(2-Chlorophenyl)methoxy]-α-hydroxy-2-(4-pyridinylmethoxy)benzeneacetic acid] yielded a melting point of 181 to 183 °C.
